Assay results taken from ChEMBL document CHEMBL1671720, “Optimized Nile Red efflux assay of AcrAB-TolC multidrug efflux system shows competition between substrates” (Antimicrob Agents Chemother, 2010).
The source made the active and inactive calls. The calls are words filed in the database; no cut-off is given here. Residues, ends and D or L forms follow the SMILES beside them. *: point of attachment. βNA = c1ccc2cc(N*)ccc2c1

Key:
Escherichia coli K-12 [1] = assay: Inhibition of acrAB AcrAB-TolC in Escherichia coli K-12 3-AG100 overexpressing acrAB AcrAB-TolC assessed as [3H]TMG accumulation at 200 uM by scintillation counter method
Escherichia coli K-12 [2] = assay: Inhibition of acrAB AcrAB-TolC-mediated Nile Red efflux in marR mutant containing Escherichia coli K-12 3-AG102 overexpressing acrAB AcrAB-TolC assessed as time needed for 50% efflux after energization with 50 mM glucose at 1000 uM by spectrofluorometric assay
Escherichia coli K-12 [3] = assay: Inhibition of acrAB AcrAB-TolC-mediated Nile Red efflux in marR mutant containing Escherichia coli K-12 3-AG102 overexpressing acrAB AcrAB-TolC assessed as time needed for 50% efflux after energization with 50 mM glucose at 200 uM by spectrofluorometric assay
Escherichia coli K-12 [4] = assay: Inhibition of acrAB AcrAB-TolC-mediated Nile Red efflux in Escherichia coli K-12 3-AG100 overexpressing acrAB AcrAB-TolC assessed as time needed for 50% efflux after energization with 50 mM glucose upto 2 mM by spectrofluorometric assay
Escherichia coli K-12 [5] = assay: Inhibition of acrAB AcrAB-TolC in Escherichia coli K-12 3-AG100 overexpressing acrAB AcrAB-TolC assessed as [3H]TMG accumulation at 800 uM by scintillation counter method
Escherichia coli K-12 [6] = assay: Inhibition of acrAB AcrAB-TolC in Escherichia coli K-12 3-AG100 overexpressing acrAB AcrAB-TolC assessed as [3H]TMG accumulation at 100 uM by scintillation counter method
Escherichia coli K-12 [7] = assay: Inhibition of acrAB AcrAB-TolC-mediated Nile Red efflux in Escherichia coli K-12 3-AG100 overexpressing acrAB AcrAB-TolC assessed as time needed for 50% efflux after energization with 50 mM glucose by spectrofluorometric assay
Escherichia coli K-12 [8] = assay: Inhibition of acrAB AcrAB-TolC-mediated Nile Red efflux in Escherichia coli K-12 3-AG100 overexpressing acrAB AcrAB-TolC assessed as time needed for 50% efflux after energization with 50 mM glucose at 800 uM by spectrofluorometric assay
Escherichia coli K-12 [9] = assay: Inhibition of acrAB AcrAB-TolC-mediated Nile Red efflux in Escherichia coli K-12 3-AG100 overexpressing acrAB AcrAB-TolC assessed as time needed for 50% efflux after energization with 50 mM glucose at 100 uM by spectrofluorometric assay

Q: How did the inhibition (Escherichia coli K-12 [1]) turn out when `N#CC(C#N)=NNc1cccc(Cl)c1` was run?
A: The inhibition was 4.5%.

Q: `CN(C)c1ccc(O)c2c1C[C@H]1C[C@H]3[C@H](N(C)C)C(O)=C(C(N)=O)C(=O)[C@@]3(O)C(O)=C1C2=O` was tested. Which TIME (Escherichia coli K-12 [2]) did it give?
A: The TIME was over 0.0556 h.

Q: And the TIME (Escherichia coli K-12 [3])?
A: Its TIME is over 0.0556 h.

Q: What about the inhibition (Escherichia coli K-12 [1]) of the same molecule?
A: Its inhibition is 45%.

Q: Which inhibition (Escherichia coli K-12 [4]) does the source give for `CC[C@H]1OC(=O)[C@H](C)[C@@H](O[C@H]2C[C@@](C)(OC)[C@@H](O)[C@H](C)O2)[C@H](C)[C@@H](O[C@@H]2O[C@H](C)C[C@H](N(C)C)[C@H]2O)[C@](C)(O)C[C@@H](C)C(=O)[C@H](C)[C@@H](O)[C@]1(C)O` here?
A: The inhibition was “inactive”.

Q: Which inhibition (Escherichia coli K-12 [5]) does the source give for `CN(C)[C@@H]1C(O)=C(C(N)=O)C(=O)[C@@]2(O)C(O)=C3C(=O)c4c(O)cccc4[C@@](C)(O)[C@H]3C[C@@H]12` here?
A: The inhibition was 27%.

Q: What about the TIME (Escherichia coli K-12 [2]) of the same molecule?
A: Its TIME is over 0.0556 h.

Q: What about the TIME (Escherichia coli K-12 [3]) of the same molecule?
A: Its TIME is 0.025 h.

Q: Which results are given for `C[C@H]1c2cccc(O)c2C(=O)C2=C(O)[C@]3(O)C(=O)C(C(N)=O)=C(O)[C@@H](N(C)C)[C@@H]3[C@@H](O)[C@@H]21`?
A: inhibition (Escherichia coli K-12 [5]): 44%; TIME (Escherichia coli K-12 [2]): > 0.0556 h; TIME (Escherichia coli K-12 [3]): 0.0472 h

Q: For `CN(C)[C@@H]1C(O)=C(C(N)=O)C(=O)[C@@]2(O)C(O)=C3C(=O)c4c(O)ccc(Cl)c4[C@@](C)(O)[C@H]3C[C@@H]12`, which TIME (Escherichia coli K-12 [2]) is on record?
A: Its TIME is over 0.0556 h.

Q: And the TIME (Escherichia coli K-12 [3])?
A: The TIME was 0.0556 h.

Q: And the inhibition (Escherichia coli K-12 [1])?
A: Its inhibition is 14%.

Q: For `COc1cccc2c1C(=O)c1c(O)c3c(c(O)c1C2=O)C[C@@](O)(C(=O)CO)C[C@@H]3O[C@H]1C[C@H](N)[C@H](O)[C@H](C)O1`, which inhibition (Escherichia coli K-12 [6]) is on record?
A: Its inhibition is 78%.

Q: And the TIME (Escherichia coli K-12 [2])?
A: The TIME was over 0.0556 h.

Q: And the TIME (Escherichia coli K-12 [3])?
A: Its TIME is over 0.0556 h.

Q: For `c1ccc2c(CN3CCNCC3)cccc2c1`, which inhibition (Escherichia coli K-12 [5]) is on record?
A: The inhibition was 53%.

Q: What about the inhibition (Escherichia coli K-12 [7]) of the same molecule?
A: Its inhibition is “Dose-dependent effect”.

Q: What about the inhibition (Escherichia coli K-12 [8]) of the same molecule?
A: The inhibition was “Active”.

Q: And the TIME (Escherichia coli K-12 [2])?
A: Its TIME is over 0.0556 h.

Q: What about the TIME (Escherichia coli K-12 [3]) of the same molecule?
A: The TIME was 0.0278 h.

Q: For `c1ccc([P+](c2ccccc2)(c2ccccc2)c2ccccc2)cc1`, which inhibition (Escherichia coli K-12 [5]) is on record?
A: The inhibition was 97%.

Q: What about the TIME (Escherichia coli K-12 [2]) of the same molecule?
A: Its TIME is over 0.0556 h.

Q: And the TIME (Escherichia coli K-12 [3])?
A: The TIME was 0.0292 h.

Q: For `CC(=O)NC[C@H]1CN(c2ccc(N3CCOCC3)c(F)c2)C(=O)O1`, which inhibition (Escherichia coli K-12 [4]) is on record?
A: Its inhibition is “inactive”.

Q: For `N=C(N)NCCC[C@H](NC(=O)[C@@H](N)Cc1ccccc1)C(=O)Nc1ccc2ccccc2c1` (H-Phe-Arg-βNA), which inhibition (Escherichia coli K-12 [6]) is on record?
A: Its inhibition is 60%.

Q: And the inhibition (Escherichia coli K-12 [7])?
A: Its inhibition is “Dose-dependent effect”.

Q: What about the inhibition (Escherichia coli K-12 [9]) of the same molecule?
A: Its inhibition is “Active”.
